Data on three compounds can be found in US11850279B2, “Platforms and methods for optimizing host antigen presentation and host antitumor and antipathogen immunity” (OHIO STATE INNOVATION FOUNDATION, priority 2016, dated 2023).

One series deals with CD8^+ T cells. The series is described as follows: In vivo CD8+ T cell priming by activated B cells / CABs. From the text:
In other words, in vivo CD8^+ T cell priming is increased by antecedent treatment with Flt-3L and GM-CSF.
In vivo CD8^+ T cell priming is increased by CHX treatment of activated B cells prior to injection. CHX can boost antigen presenting capacity by increasing survival of activated B cells.
While in this model, GM-CSF/Flt-3L administration improved the efficacy of OVA-loaded B cell treatment, it is important to note that this cytokine treatment can improve the efficacy of intervention with other antigen-loaded antigen presenting cells (e.g. dendritic cell-based vaccine platforms).

Series [1] has as its system tumor. The series is described as follows: Anti-tumor activity of CABs (tumor size). Type of series: in vivo, mouse. As to the method: The zero-length cross linker EDAC promotes attachment of amino-containing molecules to activated B cells, such as CABs (Chlamydia activated B cells). In the bottom panel, the antigen presenting ability of activated B cells (or other professional APCs) can be enhanced by crosslinking desired antigen (protein or peptide) with EDAC prior to in vivo administration.
“Low dose” is therefore defined as 2 μg-8 μg per kg in humans for Flt-3L, and 0.5 μg-2 μg per kg in humans for GM-CSF. “High dose” is defined as any amount above 8 μg/kg of Flt-3L and above 2 μg/kg of GM-CSF.

Series [2] has as its system tumor. The conditions noted are these: cited from earlier work.
In a further series the test system is NKT cells. The conditions noted are these: human, in vivo; cited from earlier work.
The next series relates to endogenous DCs. The series can be described thus: Activation of endogenous DCs by α-GC loaded CABs. As to conditions: α-GC loading of CABs prior to in vivo administration. From the text:
In addition to GM-CSF and Flt-3L, antigen presenting capabilities of activated B cells (or other professional APCs) are enhanced by in vitro loading of APCs with α-GC prior to in vivo administration.

As for `C[C@@H]1C[C@@H]([C@H](O)CC2CC(=O)NC(=O)C2)C(=O)[C@@H](C)C1` [CHX, Cycloheximide], in the series on CD8^+ T cells (CHX treatment of activated B cells prior to injection), the “in vivo CD8^+ T cell priming” value is “increased”.

For `CCN=C=NCCCN(C)C` [EDAC, 1-ethyl 1-3-(3-dimethylaminopropyl)-carbodiimide], the antitumor therapeutic activity result in the series with tumor [1] (peptide chemically conjugated to CABs using EDAC vs simple peptide pulsing/loading) is “increases antitumor therapeutic activity”.

In the case of `CCCCCCCCCCCCCCCCCCCCCCCCCC(=O)N[C@@H](CO[C@H]1O[C@H](CO)[C@H](O)[C@H](O)[C@H]1O)[C@H](O)[C@H](O)CCCCCCCCCCCCCC` [α-GC, α-Galactosylceramide], in the series on tumor [2], the tumor growth entry is “inhibit tumor growth”. In addition, the “effector function of primed antigen-specific CD8^+ T cells” value with CD8^+ T cells (α-GC-loaded CABs) is “enhance”. The “NKT cells in the peripheral blood of treated cancer patients” value in the series with NKT cells was “fell to undetectable levels”. The “activation of endogenous DCs” value with endogenous DCs was “dramatically increase”. For the same compound, the tumor size entry in the series on tumor [1] (α-GC loaded activated B cells, effect dependent on NKT cells) is “more effectively reduce tumor size”.
